Laboratory results as given in the supplement of paper PMC10307832.

Experiments:
Assay in all cases: relative viability (nuclei count vs DMSO), 5 days (fraction); higher = more cells survive
MLN4924 + Olaparib = compound: NS(=O)(=O)OC[C@@H]1C[C@@H](n2ccc3c(N[C@H]4CCc5ccccc54)ncnc32)C[C@@H]1O [MLN4924] + O=C(c1cc(Cc2n[nH]c(=O)c3ccccc23)ccc1F)N1CCN(C(=O)C2CC2)CC1 [Olaparib] (partner 8 µM)
Method in brief: (§1)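 For relative viability, nuclei counts in treated wells were divided by those in vehicle wells. Lung cancer cell lines had been pin-tool dosed in 1536-well plates the day after seeding and cultured for 5 days, then fixed and stained in one step (final 0.05% Triton X-100, 1% formaldehyde, 1 ug/ml Hoechst) and imaged at 4×. Doses were one drug alone or a fixed anchor-drug dose plus five library-drug doses (not always all listed) in √10 steps, and values are duplicate-plate medians.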

Carboplatin + AZD7762 = compound: C1CC(C1)(C(=O)O)C(=O)O.[NH2-].[NH2-].[Pt+2] [Carboplatin] + NC(=O)Nc1cc(-c2cccc(F)c2)sc1C(=O)N[C@H]1CCCNC1 [AZD7762] (partner 0.2 µM)
Method in brief: as §1

Carboplatin + Lapatinib = compound: C1CC(C1)(C(=O)O)C(=O)O.[NH2-].[NH2-].[Pt+2] [Carboplatin] + CS(=O)(=O)CCNCc1ccc(-c2ccc3ncnc(Nc4ccc(OCc5cccc(F)c5)c(Cl)c4)c3c2)o1 [Lapatinib] (partner 2 µM)
Method in brief: as §1

MLN4924 + Trametinib = compound: NS(=O)(=O)OC[C@@H]1C[C@@H](n2ccc3c(N[C@H]4CCc5ccccc54)ncnc32)C[C@@H]1O [MLN4924] + CC(=O)Nc1cccc(-n2c(=O)n(C3CC3)c(=O)c3c(Nc4ccc(I)cc4F)n(C)c(=O)c(C)c32)c1 [Trametinib] (partner 0.02 µM)
Method in brief: as §1

Cell Line	relative viability (MLN4924 + Olaparib; first compound 0.04 µM)	relative viability (MLN4924 + Olaparib; first compound 0.1265 µM)	relative viability (MLN4924 + Olaparib; first compound 0.4 µM)	relative viability (MLN4924 + Olaparib; first compound 1.265 µM)	relative viability (MLN4924 + Olaparib; first compound 4 µM)	relative viability (Carboplatin + AZD7762; first compound 0.08 µM)	relative viability (Carboplatin + AZD7762; first compound 0.253 µM)	relative viability (Carboplatin + AZD7762; first compound 0.8 µM)	relative viability (Carboplatin + AZD7762; first compound 2.53 µM)	relative viability (Carboplatin + AZD7762; first compound 8 µM)	relative viability (Carboplatin + Lapatinib; first compound 0.08 µM)	relative viability (Carboplatin + Lapatinib; first compound 0.253 µM)	relative viability (Carboplatin + Lapatinib; first compound 0.8 µM)	relative viability (Carboplatin + Lapatinib; first compound 2.53 µM)	relative viability (Carboplatin + Lapatinib; first compound 8 µM)	relative viability (MLN4924 + Trametinib; first compound 0.04 µM)	relative viability (MLN4924 + Trametinib; first compound 0.1265 µM)	relative viability (MLN4924 + Trametinib; first compound 0.4 µM)	relative viability (MLN4924 + Trametinib; first compound 1.265 µM)	relative viability (MLN4924 + Trametinib; first compound 4 µM)
HCC-78	0.867	0.967	0.684	0.222	0.22	0.744	0.712	0.656	0.693	0.644	0.867	0.833	0.971	0.875	0.631	0.798	0.509	1.13	0.268	0.243
HCC-366	0.341	0.352	0.272	0.0846	0.0262	0.442	0.256	0.155	0.126	0.0971	1.08	1.01	0.988	0.963	0.863	0.369	0.376	0.514	0.305	0.0404
HCC-827	0.637	0.412	0.34	0.164	0.141	0.245	0.204	0.213	0.182	0.223	0.236	0.175	0.18	0.187	0.224	0.738	0.601	0.526	0.193	0.156
IA-LM	0.458	0.297	0.227	0.0664	0.0734						0.809	0.802	0.739	0.929	0.77					
LCLC-103H	0.717	0.615	0.665	0.292	0.293	0.853	0.763	0.802	0.806	0.806						0.697	0.651	0.513	0.331	0.307
NCI-H441	0.567	0.426	0.296	0.143	0.169	1.26	1.11	0.954	0.995	0.804						0.576	0.508	0.598	0.152	0.19
NCI-H520	0.273	0.217	0.24	0.151	0.167						1.07	0.985	1.03	0.784	0.59	0.527	0.396	0.346	0.149	0.168
NCI-H522	0.568	0.495	0.485	0.288	0.322	0.783	0.74	0.876	0.908	0.728						0.638	0.696	0.691	0.314	0.386
NCI-H661	0.614	0.575	0.39	0.31	0.372						0.649	0.511	0.331	0.369	0.459	0.714	0.712	0.475	0.277	0.353
NCI-H1299	0.912	0.667	0.416	0.201	0.172						0.993	0.922	0.944	0.907	0.892					
NCI-H1563											0.998	1.07	1.11	0.925	0.979					
NCI-H1648	0.535	0.398	0.382	0.253	0.274	0.662	0.62	0.538	0.696	0.539						0.481	0.353	0.332	0.314	0.306
NCI-H1650	0.609	0.616	0.34	0.175	0.166						0.944	0.878	0.825	0.795	0.661	0.597	0.32	0.232	0.131	0.156
NCI-H1703	0.332	0.174	0.156	0.145	0.135	0.144	0.13	0.101		0.122	1.13	0.966	1.13	0.92	1.28					
NCI-H2009	0.449	0.382	0.143	0.146	0.0556						1.37	0.89	0.837	0.958	0.572	0.342	0.322	0.238	0.136	0.105
NCI-H2023	0.397	0.221	0.12	0.0617	0.0657						0.941	1.21	0.954	0.68	0.257	0.549	0.495	0.328	0.0604	0.0809
NCI-H2228	0.486	0.532	0.279	0.109	0.162						1.61	0.939	1.01	0.868	0.616	0.537	0.496	0.255	0.168	0.125
NCI-H2342	0.432	0.425	0.381	0.391	0.352	0.57	0.595	0.55	0.439	0.484						0.834	0.757	0.759	0.727	0.54
SK-LU-1	0.493	0.433	0.256	0.157	0.172						0.99	1.01	0.766	0.797	0.735	0.556	0.652	0.347	0.269	0.234
SK-MES-1	0.653	0.545	0.305	0.158	0.234						0.469	0.475	0.506	0.548	0.472	0.631	0.676	0.727	0.295	0.255
SW 900		0.594	0.429	0.233	0.228	0.651	0.689	0.531	0.533	0.542							0.764	0.449	0.291	0.218
SW 1573	0.486	0.303	0.108	0.0465	0.07						1.05	1.1	1.17	1.3	0.961	0.586	0.441	0.14	0.0868	0.0758
